Measurements from patent publication US9346753B2, “Dithiol mucolytic agents” (PARION SCIENCES, INC., priority 2013, dated 2016).
Structures can show the parent of a compound that is named as a salt.

Test: DTNB assay: rate of disulfide bond reduction
Format: biochemical
Design: unit not given here
Settings: 2nd order kinetic
Experimental: DTNB ASSAY: This assay determines the rate which a mucolytic agent can reduce a disulfide bond using 5,5-Dithiobis(2-nitrobenzoic acid). DTNB in various pH buffers and allows comparison of the kinetic rates of reducing agents. First, reducing agent stock solutions (30 mM) were made up in DMSO. Each compound stock solution was diluted, […] in 1 ml 50 mM Tris-HCl buffer, pH 7.5, and then added in a 1:1 volumetric ratio to a solution of 100 mM DTNB in 50 mM Tris-HCl buffer, pH 7.5. Max Abs412 was measured and then utilized to calculate the activity concentration. If the observed activity concentrations differed from expected activity concentrations by more than 5%, the volume was accordingly adjusted to kinetically test the rate in the next step. After having added the reducing agents, diluted in a range of pH buffer solutions (pH 6.0-7.5), to 45 mM DTNB in 50 mM Tris-HCl and measured the Abs412 for 5 min rates were calculated as a 2nd order kinetic.

Row | SMILES | Kinetic Reaction Rates of Reduction of DTNB (pH 6) | Kinetic Reaction Rates of Reduction of DTNB (pH 6.5) | Kinetic Reaction Rates of Reduction of DTNB (pH 7) | Kinetic Reaction Rates of Reduction of DTNB (pH 7.5)
1 | N=C(N)NCCCC[C@@H](N)C(=O)NCCOc1ccc(CS)c(CS)c1 [Compound B, (R)-2-amino-N-(2-(3,4-bis(mercaptomethyl)phenoxy)ethyl)-6-guanidinohexanamide Hydrochloride] | 1491 |  |  | 
2 | O[C@H](CS)[C@H](O)CS (racemic) [DTT, dithiothreitol, reference compound] | 69 | 176 | 382 | 2088
3 | OC[C@@H](O)[C@@H](O)[C@H](O)[C@@H](O)CN(CCOc1ccc(CS)c(CS)c1)C[C@H](O)[C@@H](O)[C@H](O)[C@H](O)CO [N, (2R,2′R,3R,3′R,4R,4′R,5S,5'S)-6,6′-(2-(3,4-bis(mercaptomethyl)phenoxy)ethylazanediyl)dihexane-1,2,3,4,5-pentaol hydrochloride] | 952 | 2366 | 4382 | 9532
4 | NCCCC[C@@H](N)C(=O)NCCOc1ccc(CS)c(CS)c1 [Compound V, (R)-2,6-diamino-N-(2-(3,4-bis(mercaptomethyl)phenoxy)ethyl)hexanamide Hydrochloride] | 1419 | 4568 | 6192 | 10043
5 | N=C(N)NCCCC[C@H](N)C(=O)NCCOc1ccc(CS)c(CS)c1 [C, (S)-2-amino-N-(2-(3,4-bis(mercaptomethyl)phenoxy)ethyl)-6-guanidinohexanamide] | 2460 | 7122 | 12313 | 17317
6 | NCCOc1ccc(CS)c(CS)c1 [KK, (4-(2-aminoethoxy)-1,2-phenylene)dimethanethiol] | 873 | 2411 | 5163 | 13896
7 | OC[C@@H](O)[C@@H](O)[C@H](O)[C@@H](O)CNCCOc1ccc(CS)c(CS)c1 [Compound O, (2R,3R,4R,5S)-6-(2-(3,4-bis(mercaptomethyl)phenoxy)ethylamino)hexane-1,2,3,4,5-pentaol hydrochloride] | 921 | 2500 | 5412 | 13547
8 | CC(C)(C)OC(=O)NCCOc1ccc(CS)c(CS)c1 [I, tert-butyl 2-(3,4-bis(mercaptomethyl)phenoxy)ethylcarbamate] | 285 | 745 | 1916 | 7265
9 | NCCCC[C@H](N)C(=O)NCCCC[C@H](N)C(=O)NCCOc1cc(CS)c(CS)cc1OCCNC(=O)[C@@H](N)CCCCNC(=O)[C@@H](N)CCCCN [X, (S,2S,2′S)-N,N′-(2,2′-(4,5-bis(mercaptomethyl)-1,2-phenylene)bis(oxy)bis(ethane-2,1-diyl))bis(2-amino-6-((S)-2,6-diaminohexanamido)hexanamide)] | 8029 |  |  | 
10 | CC(=O)NCCCC[C@H](N)C(=O)NCCOc1ccc(CS)c(CS)c1 [Compound K, (S)-6-acetamido-2-amino-N-(2-(3,4-bis(mercaptomethyl)phenoxy)ethyl)hexanamide] | 678 | 1820 | 3775 | 9143
11 | N=C(N)NCCCC[C@H](N)C(=O)NCCOc1cc(CS)c(CS)cc1OCCNC(=O)[C@@H](N)CCCCNC(=N)N [H, (2S,2′S)-N,N′-(2,2′-(4,5-bis(mercaptomethyl)-1,2-phenylene)bis(oxy)bis(ethane-2,1-diyl))bis(2-amino-6-guanidinohexanamide) Hydrochloride] | 6835 |  |  | 
12 | NCCCC[C@H](N)C(=O)NCCCC[C@H](N)C(=O)NCCCC[C@H](N)C(=O)NCCOc1ccc(CS)c(CS)c1 [T, (S)-2,6-diamino-N-((S)-5-amino-6-((S)-5-amino-6-(2-(3,4-bis(mercaptomethyl)phenoxy)ethylamino)-6-oxohexylamino)-6-oxohexyl)hexanamide] | 5144 |  |  | 
13 | NCCCC[C@H](N)C(=O)NCCOc1ccc(CS)c(CS)c1 [L, (S)-2,6-diamino-N-(2-(3,4-bis(mercaptomethyl)phenoxy)ethyl)hexanamide] | 1911 | 5565 | 8847 | 14566
14 | NCCCC[C@H](N)C(=O)NCCOc1cc(CS)c(CS)cc1OCCNC(=O)[C@@H](N)CCCCN [Compound W, (2S,2′S)-N,N′-(2,2′-(4,5-bis(mercaptomethyl)-1,2-phenylene)bis(oxy)bis(ethane-2,1-diyl))bis(2,6-diaminohexanamide) Hydrochloride] | 4850 |  |  | 
15 | N=C(N)NCCCC[C@H](N)C(=O)NCCCC[C@H](N)C(=O)NCCOc1ccc(CS)c(CS)c1 [E, (S)-2-amino-N-((S)-5-amino-6-(2-(3,4-bis(mercaptomethyl)phenoxy)ethylamino)-6-oxohexyl)-6-guanidinohexanamide Hydrochloride] | 5933 | 13718 | 16393 | 17109
16 | CCCCCCN(CCOc1ccc(CS)c(CS)c1)C[C@H](O)[C@@H](O)[C@H](O)[C@H](O)CO [P, (2R,3R,4R,5S)-6-((2-(3,4-bis(mercaptomethyl)phenoxy)ethyl)(hexyl)amino)hexane-1,2,3,4,5-pentaol hydrochloride] | 1018 | 2701 | 6180 | 13243
17 | N=C(N)NCCCC[C@H](N)C(=O)NCCCC[C@H](N)C(=O)NCCCC[C@H](N)C(=O)NCCOc1ccc(CS)c(CS)c1 [U, (S)-2-amino-6-((S)-2-amino-6-((S)-2-amino-6-guanidinohexanamido)hexanamido)-N-(2-(3,4-bis(mercaptomethyl)phenoxy)ethyl)hexanamide Hydrochloride] | 5761 |  |  | 
18 | N=C(N)NCCCC[C@H](N)C(=O)NCCCC[C@H](N)C(=O)NCCOc1cc(CS)c(CS)cc1OCCNC(=O)[C@@H](N)CCCCNC(=O)[C@@H](N)CCCCNC(=N)N [Y, (S,2S,2′S)-N,N′-(2,2′-(4,5-bis(mercaptomethyl)-1,2-phenylene)bis(oxy)bis(ethane-2,1-diyl))bis(2-amino-6-((S)-2-amino-6-guanidinohexanamido)hexanamide)] | 8718 |  |  | 
19 | N=C(NCCOc1ccc(CS)c(CS)c1)NC(=O)c1nc(Cl)c(N)nc1N [R, 3,5-diamino-N-(N-(2-(3,4-bis(mercaptomethyl)phenoxy)ethyl)carbamimidoyl)-6-chloropyrazine-2-carboxamide hydrochloride] | 2901 | 7382 | 13522 | 16870
20 | N=C(N)NCCOc1ccc(CS)c(CS)c1 [LL, 1-(2-(3,4-bis(mercaptomethyl)phenoxy)ethyl)guanidine] | 743 | 2352 | 4661 | 8241
21 | NCCCC[C@H](N)C(=O)NCCCC[C@H](N)C(=O)NCCOc1ccc(CS)c(CS)c1 [S, (S)-2,6-diamino-N-((S)-5-amino-6-(2-(3,4-bis(mercaptomethyl)phenoxy)ethylamino)-6-oxohexyl)hexanamide] | 4483 | 10715 | 13732 | 15469
22 | N=C(N)NCCCC[C@@H](N)C(=O)NCCCN(CCCNC(=O)[C@H](N)CCCCNC(=N)N)CCOc1ccc(CS)c(CS)c1 [Z, (2R,2′R)-N,N′-(3,3′-(2-(3,4-bis(mercaptomethyl)phenoxy)ethylazanediyl)bis(propane-3,1-diyl))bis(2-amino-6-guanidinohexanamide)] | 7200 | 10420 | 10631 | 18513
23 | CN(C)CCOc1ccc(CS)c(CS)c1 [Q, (4-(2-(dimethylamino)ethoxy)-1,2-phenylene)dimethanethiol hydrochloride] | 954 | 2984 | 6077 | 15927
